In patent publication US9844540B2, “Combination therapies for treating cancer” (RedHill Biopharma Ltd., priority 2015, dated 2017) one finds IC50 data, which are given here for 1 molecule.

The subject of one test is Hep-G2 (liver). Put plainly: Tumor cell line panel, sulforhodamine B, Hep-G2. Type of test: cell-based. The following applies: Homo sapiens, HepG2, 48 hours, mean ± sd. The protocol: (§1) To examine the range of anticancer, the chemotherapeutic potency of ABC294640 towards a panel of varied human tumor cell lines representing several major tumor types were determined. […] [table]

In the next test the test system is T24 (bladder). The test can be described thus: Tumor cell line panel, sulforhodamine B, T24. The following applies: Homo sapiens, 48 hours, mean ± sd. Type of test: cell-based. As to the method:
as §1

Consider `O=C(NCc1ccncc1)C12CC3CC(C1)CC(c1ccc(Cl)cc1)(C3)C2` [Compound 62, 3-(4-Chloro-phenyl)-adamantane-1-carboxylic acid(pyridin-4-ylmethyl)-amide], for which the IC50 (in general, the point on the concentration scale where inhibition reaches its midpoint) came out at 6 ± 2.6 µM in the test on Hep-G2 (liver) and 39.4 ± 7.4 µM with T24 (bladder).
